# Columns and labels:
# [1] = biological target: T1, recombinant human FLAP protein (Homo sapiens, UniProt P20292); experiment: FLAP binding assay (SPA, displacement of [125I]L-691,831); settings: membranes of sf9 cells expressing recombinant human FLAP; [125I]L-691,831 probe; read-out: FLAP binding IC50
# T1 construct: made in house; host or cells: Sf9 insect cells (100,000×g membrane pellet used)
# T1 sequence (P20292 1-161): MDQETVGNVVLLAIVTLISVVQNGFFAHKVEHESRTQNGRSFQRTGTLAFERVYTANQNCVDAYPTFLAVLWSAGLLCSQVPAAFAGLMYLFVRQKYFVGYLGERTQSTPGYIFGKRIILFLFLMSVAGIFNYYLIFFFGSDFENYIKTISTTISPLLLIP
# Method in brief: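 Membranes from sf9 cells expressing human FLAP in pH 7.5 Tris buffer (MgCl2, EDTA, PMSF). Non-specific binding defined with 10 μM cold L-691,831.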
# [2] = test system: synthesis of LTB4 in human whole blood; experiment: Human whole blood assay (inhibition of LTB4 synthesis, calcimycin stimulated); format: cell-based; settings: heparinized human whole blood, calcimycin 20 μM, plasma LTB4
# Method in brief: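 Whole-blood cellular format, heparinized human donors: 15 min compound pretreatment, then 30 min calcimycin stimulation (20 μM final), both at 37° C. Low-speed centrifugation yields plasma, in which LTB4 is read by homogeneous time-resolved fluorescence immunoassay.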
SMILES,IC50 [1] [µM],IC50 [2] [µM]
"CC(C)C(C)(c1ccc(-c2cnc(N)c(CO)c2)cc1)c1noc(-c2cccnc2)n1 (stereo not drawn) [Example 6, [2-amino-5-(4-{3-methyl-2-[5-(pyridin-3-yl)-1,2,4-oxadiazol-3-yl]butan-2-yl}phenyl)pyridin-3-yl]methanol]",0.0011,0.07
"CC(C)C(C)(c1ccc(-c2cnc(N)nc2)cc1)c1noc(C2(C(=O)O)CC2)n1 (stereo not drawn) [Example 95, 1-(3-{2-[4-(2-aminopyrimidin-5-yl)phenyl]-3-methylbutan-2-yl}-1,2,4-oxadiazol-5-yl)cyclopropanecarboxylic acid]",0.13,> 5
"COCCn1cc(-c2nc([C@@](C)(c3ccc(-c4cnc(N)nc4)cc3)C3CCC3)no2)cn1 [Example 100, 5-{4-[(1R)-1-cyclobutyl-1-{5-[1-(2-methoxyethyl)-1H-pyrazol-4-yl]-1,2,4-oxadiazol-3-yl}ethyl]phenyl}pyrimidin-2-amine]",0.0023,0.11
"CN(C)C(=O)Cn1cc(-c2nc([C@@](C)(c3ccc(-c4cnc(N)nc4)cc3)C3CCC3)no2)cn1 [Example 104, 2-[4-(3-{(1R)-1-[4-(2-aminopyrimidin-5-yl)phenyl]-1-cyclobutylethyl}-1,2,4-oxadiazol-5-yl)-1H-pyrazol-1-yl]-N,N-dimethylacetamide]",0.0061,0.13
"CN(C)C(=O)Cn1cc(-c2nc([C@@](C)(c3ccc(-c4cnc(N)c(C#N)n4)cc3)C3CC3)no2)cn1 [Example 294, 2-[4-(3-{(R)-1-[4-(5-Amino-6-cyano-pyrazin-2-yl)-phenyl]-1-cyclopropyl-ethyl}-[1,2,4]oxadiazol-5-yl)-pyrazol-1-yl]-N,N-dimethyl-acetamide]",0.007,0.2
"Cn1ccc(-c2nc(C(C)(c3ccc(-c4cnc(N)nc4)cc3)C3CC3)no2)n1 (stereo not drawn) [Example 26, 5-(4-{1-cyclopropyl-1-[5-(1-methyl-1H-pyrazol-3-yl)-1,2,4-oxadiazol-3-yl]ethyl}phenyl)pyrimidin-2-amine]",0.0091,0.16
"C[C@](c1ccc(-c2cnc(N)nc2)cc1)(c1noc(-c2cn[nH]c2)n1)C1CC1 [Example 49, 5-(4-{(1S)-1-cyclopropyl-1-[5-(1H-pyrazol-4-yl)-1,2,4-oxadiazol-3-yl]ethyl}phenyl)pyrimidin-2-amine]",0.019,0.68
"C[C@@](c1ccc(-c2ccc(N)nc2)cc1)(c1noc(N2CCC(O)CC2)n1)C1CC1 [Example 282, 1-(3-{(R)-1-[4-(6-Amino-pyridin-3-yl)-phenyl]-1-cyclopropyl-ethyl}-[1,2,4]oxadiazol-5-yl)-piperidin-4-ol]",0.0065,0.044
"CC(C)C(C)(c1ccc(-c2cnc(N)nc2)cc1)c1noc(C2CCCC(=O)N2C)n1 (stereo not drawn) [Example 166, 6-(3-{2-[4-(2-aminopyrimidin-5-yl)phenyl]-3-methylbutan-2-yl}-1,2,4-oxadiazol-5-yl)-1-methylpiperidin-2-one]",0.026,2.4
"CN(C)C(=O)Cn1cc(-c2nc(C(C)(c3ccc(-c4cnc5c(c4)OCCN5)cc3)C3CC3)no2)cn1 (stereo not drawn) [Example 239, 2-[4-(3-{1-Cyclopropyl-1-[4-(3,4-dihydro-2H-pyrido[3,2-b][1,4]oxazin-7-yl)-phenyl]-ethyl}-[1,2,4]oxadiazol-5-yl)-pyrazol-1-yl]-N,N-dimethyl-acetamide]",0.0041,0.29
"CC(C)C(C)(c1ccc(-c2cnc(N)nc2)cc1)c1noc(CCC(C)(C)C(=O)O)n1 (stereo not drawn) [Example 85, 4-(3-{2-[4-(2-aminopyrimidin-5-yl)phenyl]-3-methylbutan-2-yl}-1,2,4-oxadiazol-5-yl)-2,2-dimethylbutanoic acid]",0.048,> 5
"COCCn1cc(-c2nc([C@](C)(c3ccc(-c4cnc(N)nc4)cc3)C3CC3)no2)cn1 [Example 53, 5-{4-[(1S)-1-cyclopropyl-1-{5-[1-(2-methoxyethyl)-1H-pyrazol-4-yl]-1,2,4-oxadiazol-3-yl}ethyl]phenyl}pyrimidin-2-amine]",0.027,0.45
"COCCN(C)C(=O)Cn1cc(-c2nc([C@@](C)(c3ccc(-c4cnc(N)nc4)cc3)C3CC3)no2)cn1 [Example 194, 2-[4-(3-{(R)-1-[4-(2-Amino-pyrimidin-5-yl)-phenyl]-1-cyclopropyl-ethyl}-[1,2,4]oxadiazol-5-yl)-pyrazol-1-yl]-N-(2-methoxy-ethyl)-N-methyl-acetamide]",0.006,0.096
"Cn1cc(-c2nc(C(C)(C)c3ccc(-c4cnc(N)nc4)cc3)no2)cn1 [Example 68, 5-(4-{2-[5-(1-methyl-1H-pyrazol-4-yl)-1,2,4-oxadiazol-3-yl]propan-2-yl}phenyl)pyrimidin-2-amine]",0.0067,0.093
"Cc1ncoc1-c1nc(C(C)(c2ccc(-c3cnc(N)nc3)cc2)C(C)C)no1 (stereo not drawn) [Example 140, 5-(4-{3-methyl-2-[5-(4-methyl-1,3-oxazol-5-yl)-1,2,4-oxadiazol-3-yl]butan-2-yl}phenyl)pyrimidin-2-amine]",0.0041,0.71
"CC(C)(O)Cn1cc(-c2nc([C@@](C)(c3ccc(-c4cnc(N)nc4)cc3)C3CC3)no2)cn1 [Example 174, 1-[4-(3-{(R)-1-[4-(2-Amino-pyrimidin-5-yl)-phenyl]-1-cyclopropyl-ethyl}-[1,2,4]oxadiazol-5-yl)-pyrazol-1-yl]-2-methyl-propan-2-ol]",0.0012,0.019
"CC(C)C(C)(c1ccc(-c2cnc(N)nc2)cc1)c1noc(C(=O)N2CCN(C)CC2)n1 (stereo not drawn) [Example 91, (3-{2-[4-(2-aminopyrimidin-5-yl)phenyl]-3-methylbutan-2-yl}-1,2,4-oxadiazol-5-yl)(4-methylpiperazin-1-yl)methanone]",0.054,1.3
"CN(c1nc(C(C)(c2ccc(-c3cnc(N)nc3)cc2)C2CC2)no1)C1CCC(O)CC1 (stereo not drawn) [Example 297, 4-[(3-{1-[4-(2-Amino-pyrimidin-5-yl)-phenyl]-1-cyclopropyl-ethyl}-[1,2,4]oxadiazol-5-yl)-methyl-amino]-cyclohexanol]",0.0085,0.079
"C[C@](c1ccc(-c2ccc(N)nc2)cc1)(c1noc(-c2cnc(N3CCNCC3)cn2)n1)C1CC1 [Example 268, 5-(4-{(S)-1-Cyclopropyl-1-[5-(3,4,5,6-tetrahydro-2H-[1,2′]bipyrazinyl-5′-yl)-[1,2,4]oxadiazol-3-yl]-ethyl}-phenyl)-pyridin-2-ylamine]",0.0093,0.6
"COCCNc1cnc(-c2nc(C(C)(c3ccc(-c4cnc(N)nc4)cc3)C3CC3)no2)cn1 (stereo not drawn) [Example 42, 5-{4-[1-cyclopropyl-1-(5-{5-[(2-methoxyethyl)amino]pyrazin-2-yl}-1,2,4-oxadiazol-3-yl)ethyl]phenyl}pyrimidin-2-amine]",0.0015,0.025
"COCCNc1cnc(-c2nc([C@](C)(c3ccc(-c4cnc(N)nc4)cc3)C(C)C)no2)cn1 [Example 124, 5-{4-[(2S)-2-(5-{5-[(2-methoxyethyl)amino]pyrazin-2-yl} 1,2,4-oxadiazol-3-yl)-3-methylbutan-2-yl]phenyl}pyrimidin-2-amine]",0.0023,0.031
